Results on seven cell lines are retold here after the supplement of paper PMC10307832.

What all share (experiment): relative viability (nuclei count vs DMSO), 5 days (fraction); higher = more cells survive
Compound in assay [1]: CC1=CN2C(=O)C=C(N=C2C(=C1)C(C)NC3=CC=CC=C3)N4CCOCC4 [TGX 221] + Nc1ncn([C@H]2C[C@H](O)[C@@H](CO)O2)c(=O)n1 [Decitabine] (partner 2 µM)
In outline:
(§1)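 Each reported value is a median over duplicate plates. It expresses relative viability: treated-well nuclei count divided by vehicle-well nuclei count. Lung cancer cell lines in 1536-well plates were dosed by pin tool a day after seeding, alone with one drug or with a fixed anchor-drug dose plus five library-drug doses (not always all listed) in √10 steps, and nuclei were counted after 5 days.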

Compound in assay [2]: CC1=CN2C(=O)C=C(N=C2C(=C1)C(C)NC3=CC=CC=C3)N4CCOCC4 [TGX 221] + O=C(CCCCCCC(=O)Nc1ccccc1)NO [Vorinostat] (partner 1 µM)
In a few lines:
as §1

Compound in assay [3]: O=C(CCCCCCNC(=O)c1cnc(N(c2ccccc2)c2ccccc2)nc1)NO [Ricolinostat] + CC(C)C[C@H](NC(=O)[C@H](Cc1ccccc1)NC(=O)c1cnccn1)B(O)O [Bortezomib] (partner 0.002 µM)
In a few lines:
as §1

Compound in assay [4]: C1=CC=C(C(=C1)C2=CC=C(C=C2)C3=CSC4=C3C(=C(C(=O)N4)C#N)O)O + CCNC(=O)c1noc(-c2cc(C(C)C)c(O)cc2O)c1-c1ccc(CN2CCOCC2)cc1 [Luminespib] (partner 0.01 µM)
In outline: as §1

On to A-427, for which the relative viability in assay [1] (first compound 0.08 µM) came to 0.548; in assay [1] (first compound 0.253 µM) it was 0.55; in assay [1] (first compound 0.8 µM) it was 0.558; in assay [1] (first compound 2.53 µM), 0.594; in assay [1] (first compound 8 µM), 0.519; in assay [2] (first compound 0.08 µM), 0.872. The relative viability came out at 0.876 in assay [2] (first compound 0.253 µM); 0.817 in assay [2] (first compound 0.8 µM); 0.847 in assay [2] (first compound 2.53 µM); 0.856 in assay [2] (first compound 8 µM); 0.89 in assay [3] (first compound 0.08 µM); 0.998 in assay [3] (first compound 0.253 µM). Also, the relative viability in assay [3] (first compound 0.8 µM) came to 0.933; in assay [3] (first compound 2.53 µM) it was 0.736; in assay [4] (first compound 0.08 µM) it was 0.735; in assay [4] (first compound 0.253 µM) it was 1.37; in assay [4] (first compound 0.8 µM) it was 0.916; in assay [4] (first compound 2.53 µM), 1.06. The relative viability in assay [4] (first compound 8 µM) amounted to 0.927.

As for ABC-1, the relative viability in assay [1] (first compound 0.08 µM) was determined as 1.06; in assay [1] (first compound 0.253 µM), 1.26; in assay [1] (first compound 0.8 µM) it was 1; in assay [1] (first compound 2.53 µM), 1.07; in assay [1] (first compound 8 µM), 0.923; in assay [2] (first compound 0.08 µM), 1.2. The relative viability was 0.753 in assay [2] (first compound 0.253 µM); 0.996 in assay [2] (first compound 0.8 µM); 0.981 in assay [2] (first compound 2.53 µM); 1.29 in assay [2] (first compound 8 µM); 0.311 in assay [3] (first compound 0.08 µM); 0.302 in assay [3] (first compound 0.253 µM). Further, the relative viability in assay [3] (first compound 0.8 µM) was 0.25; in assay [3] (first compound 2.53 µM), 0.264; in assay [4] (first compound 0.08 µM), 0.509; in assay [4] (first compound 0.253 µM), 0.768; in assay [4] (first compound 0.8 µM), 0.78; in assay [4] (first compound 2.53 µM), 0.481. Moreover, in assay [4] (first compound 8 µM), the relative viability was found to be 0.513.

With BEN, the relative viability in assay [1] (first compound 0.08 µM) was determined as 0.679; in assay [1] (first compound 0.253 µM) it was 0.669; in assay [1] (first compound 0.8 µM), 0.667; in assay [1] (first compound 2.53 µM), 0.715; in assay [1] (first compound 8 µM) it was 0.715; in assay [2] (first compound 0.08 µM), 0.588. Moreover, the relative viability worked out at 0.572 in assay [2] (first compound 0.253 µM); 0.523 in assay [2] (first compound 0.8 µM); 0.501 in assay [2] (first compound 2.53 µM); 0.547 in assay [2] (first compound 8 µM); 0.781 in assay [3] (first compound 0.08 µM); 0.694 in assay [3] (first compound 0.253 µM). The relative viability in assay [3] (first compound 0.8 µM) is 0.567; in assay [3] (first compound 2.53 µM), 0.609; in assay [4] (first compound 0.08 µM), 0.354; in assay [4] (first compound 0.253 µM), 0.345; in assay [4] (first compound 0.8 µM), 0.305; in assay [4] (first compound 2.53 µM), 0.71. Further, the relative viability in assay [4] (first compound 8 µM) is 0.331.

For the cell line COR-L23, the relative viability in assay [1] (first compound 0.08 µM) came to 0.445; in assay [1] (first compound 0.253 µM), 0.402; in assay [1] (first compound 0.8 µM) it was 0.483; in assay [1] (first compound 2.53 µM) it was 0.487; in assay [1] (first compound 8 µM), 0.489; in assay [2] (first compound 0.08 µM) it was 0.425. In addition, the relative viability worked out at 0.409 in assay [2] (first compound 0.253 µM); 0.436 in assay [2] (first compound 0.8 µM); 0.469 in assay [2] (first compound 2.53 µM); 0.336 in assay [2] (first compound 8 µM); 0.919 in assay [3] (first compound 0.08 µM); 0.894 in assay [3] (first compound 0.253 µM). Besides, the relative viability in assay [3] (first compound 0.8 µM) came to 0.951; in assay [3] (first compound 2.53 µM) it was 0.464; in assay [4] (first compound 0.08 µM) it was 0.524; in assay [4] (first compound 0.253 µM), 0.745; in assay [4] (first compound 0.8 µM), 0.714; in assay [4] (first compound 2.53 µM), 0.773. Moreover, in assay [4] (first compound 8 µM), the relative viability came to 0.52.

Regarding COR-L 105, the relative viability came out at 0.651 in assay [1] (first compound 0.08 µM); 0.609 in assay [1] (first compound 0.253 µM); 0.628 in assay [1] (first compound 0.8 µM); 0.649 in assay [1] (first compound 2.53 µM); 0.596 in assay [1] (first compound 8 µM); 0.906 in assay [2] (first compound 0.08 µM). Moreover, the relative viability in assay [2] (first compound 0.253 µM) was determined as 0.884; in assay [2] (first compound 0.8 µM), 0.869; in assay [2] (first compound 2.53 µM) it was 0.726; in assay [2] (first compound 8 µM) it was 0.82; in assay [3] (first compound 0.08 µM), 0.844; in assay [3] (first compound 0.253 µM) it was 0.885. The relative viability came to 0.946 in assay [3] (first compound 0.8 µM); 0.993 in assay [3] (first compound 2.53 µM); 0.881 in assay [4] (first compound 0.08 µM); 0.821 in assay [4] (first compound 0.253 µM); 0.722 in assay [4] (first compound 0.8 µM); 0.625 in assay [4] (first compound 2.53 µM). The relative viability in assay [4] (first compound 8 µM) turned out to be 0.752.

In the case of ChaGo-K-1, the relative viability in assay [1] (first compound 0.08 µM) is 0.485; in assay [1] (first compound 0.253 µM), 0.519; in assay [1] (first compound 0.8 µM), 0.563; in assay [1] (first compound 2.53 µM) it was 0.544; in assay [1] (first compound 8 µM), 0.548; in assay [2] (first compound 0.08 µM), 0.742. The relative viability was 0.758 in assay [2] (first compound 0.253 µM); 0.749 in assay [2] (first compound 0.8 µM); 0.727 in assay [2] (first compound 2.53 µM); 0.707 in assay [2] (first compound 8 µM); 1 in assay [3] (first compound 0.08 µM); 1.18 in assay [3] (first compound 0.253 µM). In addition, the relative viability in assay [3] (first compound 0.8 µM) stood at 0.959; in assay [3] (first compound 2.53 µM), 0.9; in assay [4] (first compound 0.08 µM), 0.706; in assay [4] (first compound 0.253 µM), 0.628; in assay [4] (first compound 0.8 µM), 0.684; in assay [4] (first compound 2.53 µM), 0.597. Moreover, the relative viability in assay [4] (first compound 8 µM) turned out to be 0.604.

EKVX: the relative viability stood at 0.346 in assay [1] (first compound 0.08 µM); 0.313 in assay [1] (first compound 0.253 µM); 0.345 in assay [1] (first compound 0.8 µM); 0.367 in assay [1] (first compound 2.53 µM); 0.307 in assay [1] (first compound 8 µM); 0.767 in assay [2] (first compound 0.08 µM). For the same cell line, the relative viability in assay [2] (first compound 0.253 µM) turned out to be 0.758; in assay [2] (first compound 0.8 µM), 0.841; in assay [2] (first compound 2.53 µM), 0.608; in assay [2] (first compound 8 µM), 0.539; in assay [3] (first compound 0.253 µM), 1.03; in assay [3] (first compound 0.8 µM), 1.16. Further, the relative viability came out at 0.83 in assay [3] (first compound 2.53 µM); 1.14 in assay [4] (first compound 0.08 µM); 0.977 in assay [4] (first compound 0.253 µM); 0.863 in assay [4] (first compound 0.8 µM); 0.912 in assay [4] (first compound 2.53 µM); 0.726 in assay [4] (first compound 8 µM).
